Measured values: patent publication US20200085767A1, “Methods for Treating Hydrocephalus” (Indian University Research and Technology Corporation, priority 2016, published 2020)
“Also recorded” adds a separate entry of the source.

Test system: PCP-R choroid plexus cell line
Test: Ussing chamber electrophysiology of TRPV4 agonist-stimulated transepithelial ion transport (short-circuit current and conductance)
Type: cell-based, porcine
From the text: In order to follow transepithelial ion movement, Ussing chamber electrophysiological techniques were used. The choroid plexus model is a high resistance, continuous cell line of porcine choroid plexus epithelial cells grown on permeable supports. […] The cells were mounted on electrophysiological apparatuses for analysis of transepithelial ion flux in response to inhibitory or stimulatory reagents. Filters were excised, mounted in a Ussing chamber, and connected to a DVC-1000 Voltage/Current Clamp with voltage and current electrodes on either side of the membrane. Each half of the chamber contained a tapered fluid compartment with fittings for voltage electrodes (close to the epithelial membrane) and current electrodes (at the opposite end of the chamber). The fluid chamber was water jacketed to maintain a constant temperature (37° C.). The cells were bathed in serum-free media. Media were circulated in the chambers and oxygenated by means of a 5% CO2/O2 gas lift. The spontaneous transepithelial potential difference was measured and clamped to zero, and the resultant short-circuit (SCC) was monitored continuously as a measurement of net transepithelial ion flux. As per convention, a negative deflection in the SCC was either cation secretion (from blood to CSF) or anion absorption (CSF to blood). Transepithelial resistance (TER) was recorded every 200 seconds throughout each experiment by applying a 2 mV pulse and using the resulting deflection in the SCC to calculate the TER by Ohm's law. Conductances were calculated from the change in current during the voltages pulses. Specifically conductance is the change in current divided by the magnitude of the imposed voltage. In all cases, the graphs shown in each panel represent a series of control and experimental cultures that were grown and analyzed in parallel.
After the basal current was stabilized, effectors were added to one or both sides of polarized monolayer as dictated by the physiological situation.
Further, conductance is a measurement of the permeability of the tissue to water and electrolytes. So, as the conductance goes up, one would expect greater ion and fluid permeability across the choroid plexus which is a barrier epithelium.
The same methods were used in this Example as in Example 1.

| SMILES | change in conductance (agonist alone) | transepithelial ion transport response measured as short-circuit current (SCC) (agonist alone, added at time 0 minutes) | GSK1016790A-stimulated transepithelial potassium secretion in the direction of the CSF (short-circuit current, SCC) (cells pre-treated from time -10 to 0 minutes, GSK1016790A added at 0 minutes) | TRPV4 agonist-induced increase in conductance (permeability) (pre-treatment before the TRPV4 agonist GSK1016790A) |
| --- | --- | --- | --- | --- |
| CC(C)C[C@H](NC(=O)c1cc2ccccc2s1)C(=O)N1CCN(C(=O)[C@H](CO)NS(=O)(=O)c2ccc(Cl)cc2Cl)CC1 [GSK1016790A] | large increase in the conductance | consistent with cation secretion into the CSF |  |  |
| NCCC(Oc1ccc(C(F)(F)F)cc1)c1ccccc1 (stereo not shown) [norfluoxetine] |  |  | effective at inhibiting the TRPV4-stimulated ion transport; also recorded: completely inhibited | blocked this increased permeability |
